From the supplement of paper PMC10307832

How the values were obtained:
Test in all cases: relative viability (nuclei count vs DMSO), 5 days (fraction); higher = more cells survive
BI-2536 = compound: CC[C@@H]1C(=O)N(C)c2cnc(Nc3ccc(C(=O)NC4CCN(C)CC4)cc3OC)nc2N1C1CCCC1 [BI-2536]
Outline: (§1)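 For viability, nuclei in each treated well were divided by nuclei in vehicle wells and the median across plates was taken. Lung cancer cell lines in 1536-well plates were pinned with five library-drug doses (not always all listed) spaced by √10, cultured 5 days without medium change, and imaged at 4× after Hoechst staining, with plates passing only at control CV below 25% and at least one doubling.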

NPK76-II-72-1 = compound: CC1CC(=O)N(C2=CN=C(N=C2N1C3CCCC3)NC4=C(C=C(C=C4)C(=O)NC5CCN(CC5)C)OC)C [NPK76-II-72-1]
Outline: as §1

BI-2536 + Pemetrexed = compound: CC[C@@H]1C(=O)N(C)c2cnc(Nc3ccc(C(=O)NC4CCN(C)CC4)cc3OC)nc2N1C1CCCC1 [BI-2536] + Nc1nc2[nH]cc(CCc3ccc(C(=O)N[C@@H](CCC(=O)O)C(=O)O)cc3)c2c(=O)[nH]1 [Pemetrexed] (partner 0.2 µM)
Outline: (§2)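 A single step with final 0.05% Triton X-100, 1% formaldehyde and 1 ug/ml Hoechst fixed the cells and stained nuclei 5 days after treatment. Lung cancer cell lines in 1536-well plates had been treated by pin tool the day after seeding with one drug alone or a fixed anchor-drug dose plus five library-drug doses (not always all listed) in √10 steps, and nuclei were counted on 4× images. Relative viability is the ratio of nuclei in treated wells to nuclei in vehicle wells, taken as the median of duplicate plates.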

NPK76-II-72-1 + OSI-027 = compound: CC1CC(=O)N(C2=CN=C(N=C2N1C3CCCC3)NC4=C(C=C(C=C4)C(=O)NC5CCN(CC5)C)OC)C [NPK76-II-72-1] + COc1cccc2cc(-c3nc([C@H]4CC[C@H](C(=O)O)CC4)n4ncnc(N)c34)[nH]c12 [OSI-027] (partner 0.5 µM)
Outline: as §2

Row | Cell Line | relative viability (BI-2536; 0.01 µM) | relative viability (BI-2536; 0.03162 µM) | relative viability (BI-2536; 0.1 µM) | relative viability (BI-2536; 0.3162 µM) | relative viability (BI-2536; 1 µM) | relative viability (NPK76-II-72-1; 0.01 µM) | relative viability (NPK76-II-72-1; 0.03162 µM) | relative viability (NPK76-II-72-1; 0.1 µM) | relative viability (NPK76-II-72-1; 0.3162 µM) | relative viability (NPK76-II-72-1; 1 µM) | relative viability (BI-2536 + Pemetrexed; first compound 0.01 µM) | relative viability (BI-2536 + Pemetrexed; first compound 0.03162 µM) | relative viability (BI-2536 + Pemetrexed; first compound 0.1 µM) | relative viability (BI-2536 + Pemetrexed; first compound 0.3162 µM) | relative viability (BI-2536 + Pemetrexed; first compound 1 µM) | relative viability (NPK76-II-72-1 + OSI-027; first compound 0.01 µM) | relative viability (NPK76-II-72-1 + OSI-027; first compound 0.03162 µM) | relative viability (NPK76-II-72-1 + OSI-027; first compound 0.1 µM) | relative viability (NPK76-II-72-1 + OSI-027; first compound 0.3162 µM) | relative viability (NPK76-II-72-1 + OSI-027; first compound 1 µM)
1 | HCC-44 | 1.01 | 0.996 | 0.31 | 0.155 | 0.129 | 1 | 1.04 | 0.96 | 0.969 | 1.07 | 0.738 | 0.612 | 0.651 | 0.38 | 0.246 | 0.617 | 0.702 | 0.337 | 0.599 | 0.65
2 | HCC-78 | 0.972 | 1.04 | 0.831 | 0.579 | 0.247 | 0.881 | 0.903 | 0.931 | 0.976 | 1 | 0.981 | 0.874 | 0.932 | 0.895 | 0.847 | 0.511 | 0.467 | 0.356 | 0.496 | 0.404
3 | HCC-366 | 1.04 | 1.06 | 0.677 | 0.0316 | 0.0344 | 0.994 | 0.999 | 1 | 1.09 | 0.97 | 0.193 | 0.17 | 0.157 | 0.024 | 0.0288 | 0.939 | 0.998 | 1.08 | 0.863 | 0.888
4 | HCC-827 | 1.05 | 1.03 | 0.927 | 0.441 | 0.284 | 1.04 | 1.04 | 1.07 | 1.03 | 1.06 | 0.232 | 0.253 | 0.224 | 0.227 | 0.187 | 0.75 | 0.788 | 0.835 | 0.597 | 0.801
5 | HOP-62 | 1 | 1.07 | 0.775 | 0.194 | 0.155 | 0.935 | 1.02 | 0.937 | 0.875 | 1.05 | 0.394 | 0.29 | 0.225 | 0.109 | 0.151 | 0.784 | 0.919 | 0.917 | 0.722 | 0.978
6 | IA-LM | 0.954 | 0.912 | 0.649 | 0.0924 | 0.061 | 0.871 | 0.836 | 0.919 | 0.842 | 1.14 |  |  |  |  |  |  |  |  |  | 
7 | LC-2-ad | 0.954 | 0.703 | 0.222 | 0.211 | 0.215 | 1.01 | 0.996 | 0.952 | 1 | 0.978 | 0.281 | 0.234 | 0.171 | 0.165 | 0.177 | 0.768 | 0.885 | 0.826 | 0.791 | 0.954
8 | LCLC-97TM1 | 0.969 | 1.01 | 0.813 | 0.129 | 0.0948 | 1.07 | 1.03 | 0.959 | 0.752 | 1.13 | 0.176 | 0.159 | 0.0973 | 0.0981 | 0.0935 | 0.479 | 0.67 | 0.407 | 0.45 | 0.577
9 | LCLC-103H | 0.997 | 1.05 | 0.961 | 0.491 | 0.197 | 0.984 | 1.01 | 0.896 | 1.05 | 0.952 | 0.458 | 0.488 | 0.344 | 0.231 | 0.225 | 0.458 | 0.41 | 0.477 | 0.439 | 0.413
10 | LK-2 | 0.832 | 0.887 | 0.623 | 0.128 | 0.207 | 0.961 | 0.912 | 0.962 | 0.832 | 1.01 | 0.249 | 0.249 | 0.0925 | 0.0896 | 0.1 | 0.157 | 0.227 | 0.206 | 0.201 | 0.233
11 | LOU-NH91 | 1.03 | 0.924 | 0.824 | 0.319 | 0.271 | 0.952 | 0.991 | 0.876 | 0.793 | 1.09 | 0.38 | 0.39 | 0.284 | 0.26 | 0.336 | 0.667 | 0.704 | 0.713 | 0.654 | 0.813
12 | LU99A | 0.939 | 0.815 | 0.449 | 0.245 | 0.214 | 0.882 | 0.946 | 0.945 | 0.875 | 1.02 | 0.225 | 0.193 | 0.165 | 0.152 | 0.143 | 0.309 | 0.285 | 0.241 | 0.278 | 0.299
13 | LXF-289 | 1.04 | 0.977 | 0.651 | 0.0735 | 0.0855 | 0.954 | 1.02 | 0.968 | 1.04 | 0.988 | 0.932 | 0.812 | 0.503 | 0.0709 | 0.0711 | 0.704 | 0.849 | 0.684 | 0.763 | 0.783
14 | NCI-H23 | 0.926 | 0.797 | 0.179 | 0.141 | 0.17 | 0.944 | 1.06 | 0.854 | 0.957 | 1.11 | 0.619 | 0.756 | 0.201 | 0.128 | 0.182 | 0.649 | 0.649 | 0.568 | 0.585 | 0.71
15 | NCI-H727 | 1.02 | 0.998 | 0.764 | 0.512 | 0.31 | 0.882 | 1.03 | 0.836 | 1.02 | 0.976 |  |  |  |  |  | 0.496 | 0.637 | 0.602 | 0.564 | 0.668
16 | NCI-H1299 | 0.968 | 1.05 | 0.924 | 0.291 | 0.266 | 1 | 1.03 | 1.01 | 1.01 | 1.02 |  |  |  |  |  |  |  |  |  | 
17 | NCI-H1623 | 0.956 | 0.91 | 0.852 | 0.462 | 0.28 | 0.919 | 0.953 | 0.901 | 0.852 | 0.932 |  |  |  |  |  | 0.422 | 0.405 | 0.432 | 0.362 | 0.461
18 | NCI-H1703 | 0.896 | 0.614 | 0.525 | 0.158 | 0.131 | 0.842 | 1.07 | 0.935 | 0.979 | 1.27 |  |  |  |  |  |  |  |  |  | 
